Key:
GSK-3a = GSK-3a (Homo sapiens, UniProt P49840); assay: Solvent mixture (A.E.A.)-based SIP, quantitative proteomics, SNS-032; details: 100 μM SNS-032, 293T cell lysate, 13% A.E.A. (FIG. 2F)
Text: (§1) One portion of the supernatants was used for western blotting analysis and the left portion was used for MS-based quantification.

CDK9 [1] = biological target: T1, CDK9 (Homo sapiens, UniProt P50750); assay: CA-based SIP, western blotting, SNS-032; assay type: binding; details: 100 μM SNS-032, 293T cell lysate, CA gradient
Text: The procedure of western blotting was as same as Sample 1.

CDK9 [2] = biological target: T1, CDK9; assay: Solvent mixture (A.E.A.)-based SIP, western blotting, SNS-032; details: 100 μM SNS-032, 293T cell lysate, high percentage of A.E.A.
Text: as §1

NDUFV1 = NDUFV1 (Homo sapiens, UniProt P49821); assay: Affinity evaluation by solvent mixture-based SIP dose response (western blotting)
Chain of NDUFV1 (P49821 21-464): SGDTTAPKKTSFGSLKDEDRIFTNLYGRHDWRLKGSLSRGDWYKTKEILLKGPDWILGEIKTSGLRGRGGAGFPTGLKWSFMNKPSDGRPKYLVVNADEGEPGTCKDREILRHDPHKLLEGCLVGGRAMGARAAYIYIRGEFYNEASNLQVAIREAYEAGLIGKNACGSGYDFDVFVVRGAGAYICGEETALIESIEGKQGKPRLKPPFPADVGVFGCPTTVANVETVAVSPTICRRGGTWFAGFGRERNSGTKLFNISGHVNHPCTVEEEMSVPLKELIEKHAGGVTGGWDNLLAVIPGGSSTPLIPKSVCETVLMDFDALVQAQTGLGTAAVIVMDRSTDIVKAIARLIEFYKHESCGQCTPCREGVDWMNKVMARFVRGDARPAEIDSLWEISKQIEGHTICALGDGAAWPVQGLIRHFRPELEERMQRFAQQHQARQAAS
Text: The calculation equation: Y=min+(max−min)/(1+10^((Log EC50−X)*Hill Slope)), Y is the protein abundance, X is the different drug concentrations, min and max are the minimum and maximum values of the corresponding protein abundance on the Y axis, respectively. Hill Slope is the absolute value of the maximum slope of the curve (i.e., the midpoint of the curve).

[3] = withdrawn from clinical trials; cited from earlier work

T1 sequence (P50750 whole entry): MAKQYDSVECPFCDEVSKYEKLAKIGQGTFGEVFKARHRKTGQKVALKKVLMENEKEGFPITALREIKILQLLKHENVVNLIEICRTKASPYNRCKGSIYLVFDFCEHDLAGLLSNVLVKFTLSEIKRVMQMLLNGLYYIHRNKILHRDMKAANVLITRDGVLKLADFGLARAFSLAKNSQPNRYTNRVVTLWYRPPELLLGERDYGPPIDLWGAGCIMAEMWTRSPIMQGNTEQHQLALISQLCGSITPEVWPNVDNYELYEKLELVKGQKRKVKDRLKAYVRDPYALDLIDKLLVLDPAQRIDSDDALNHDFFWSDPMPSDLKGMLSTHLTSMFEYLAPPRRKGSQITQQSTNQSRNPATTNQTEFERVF
T1 sequence (O60563 whole entry partner): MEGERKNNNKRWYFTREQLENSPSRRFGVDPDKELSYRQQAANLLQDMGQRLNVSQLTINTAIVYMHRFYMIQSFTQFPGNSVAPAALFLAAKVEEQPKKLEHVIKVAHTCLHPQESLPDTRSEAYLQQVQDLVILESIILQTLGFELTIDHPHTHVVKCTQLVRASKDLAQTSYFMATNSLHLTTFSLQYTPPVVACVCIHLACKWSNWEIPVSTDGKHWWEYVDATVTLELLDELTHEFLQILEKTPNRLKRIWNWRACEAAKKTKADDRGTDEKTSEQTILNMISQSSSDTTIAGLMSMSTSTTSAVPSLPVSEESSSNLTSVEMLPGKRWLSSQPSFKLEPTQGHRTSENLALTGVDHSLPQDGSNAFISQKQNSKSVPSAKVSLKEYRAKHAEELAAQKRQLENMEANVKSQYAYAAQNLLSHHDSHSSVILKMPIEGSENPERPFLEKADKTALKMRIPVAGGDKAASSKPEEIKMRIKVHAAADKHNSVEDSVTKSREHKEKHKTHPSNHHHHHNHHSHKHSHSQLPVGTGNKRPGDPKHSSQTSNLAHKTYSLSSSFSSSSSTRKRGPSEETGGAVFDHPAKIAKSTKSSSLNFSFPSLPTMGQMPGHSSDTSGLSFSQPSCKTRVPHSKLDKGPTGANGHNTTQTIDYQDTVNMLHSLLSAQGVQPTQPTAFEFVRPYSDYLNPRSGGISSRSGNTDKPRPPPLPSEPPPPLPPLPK
Chain of GSK-3a (P49840 whole entry): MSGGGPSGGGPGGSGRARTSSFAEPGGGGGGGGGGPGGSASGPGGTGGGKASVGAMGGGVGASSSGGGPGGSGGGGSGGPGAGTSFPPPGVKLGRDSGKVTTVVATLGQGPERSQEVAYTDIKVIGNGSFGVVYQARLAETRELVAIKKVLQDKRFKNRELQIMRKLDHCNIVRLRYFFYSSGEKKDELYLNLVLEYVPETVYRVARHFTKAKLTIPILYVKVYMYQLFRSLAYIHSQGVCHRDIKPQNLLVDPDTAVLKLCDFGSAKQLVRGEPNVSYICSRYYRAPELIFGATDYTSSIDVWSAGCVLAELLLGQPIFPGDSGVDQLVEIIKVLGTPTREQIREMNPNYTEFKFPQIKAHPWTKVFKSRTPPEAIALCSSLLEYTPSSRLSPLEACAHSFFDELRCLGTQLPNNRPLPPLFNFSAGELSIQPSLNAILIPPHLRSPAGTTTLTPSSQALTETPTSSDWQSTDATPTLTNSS

Row | average log 2 FC (H/L normalization ratio) of GSK-3a (GSK-3a) | stabilization of CDK9 by western blotting (CDK9 [2]) | EC50 (NDUFV1) | SMILES | abundance of CDK9 by western blotting (CDK9 [1]) | side effects in clinical trials [3]
1 | 1.13 | significant stabilization shifts |  | CC(C)(C)c1cnc(CSc2cnc(NC(=O)C3CCNCC3)s2)o1 [SNS-032] | higher as compared with that in the control group | 
2 |  |  | 10 to 100 µM | COC1=C2C[C@@H](C)C[C@H](OC)[C@H](O)[C@@H](C)/C=C(\C)[C@H](OC(N)=O)[C@@H](OC)/C=C\C=C(/C)C(=O)NC(=CC1=O)C2=O [geldanamycin] |  | severe hepatotoxicity
